# In ChEMBL document CHEMBL1137058, “Novel 2-oxoimidazolidine-4-carboxylic acid derivatives as hepatitis C virus NS3-4A serine protease inhibitors: synthesis, activity, and X-ray crystal structure of an enzyme inhibitor complex” (Bioorg Med Chem Lett, 2004):
# Target: NS3 (Hepatitis C virus, UniProt A3EZJ3)
# Test: Inhibition of Hepatitis C virus NS3 serine protease
# Set-up: species or system Hepacivirus hominis
# Sequence of NS3 (A3EZJ3 whole entry): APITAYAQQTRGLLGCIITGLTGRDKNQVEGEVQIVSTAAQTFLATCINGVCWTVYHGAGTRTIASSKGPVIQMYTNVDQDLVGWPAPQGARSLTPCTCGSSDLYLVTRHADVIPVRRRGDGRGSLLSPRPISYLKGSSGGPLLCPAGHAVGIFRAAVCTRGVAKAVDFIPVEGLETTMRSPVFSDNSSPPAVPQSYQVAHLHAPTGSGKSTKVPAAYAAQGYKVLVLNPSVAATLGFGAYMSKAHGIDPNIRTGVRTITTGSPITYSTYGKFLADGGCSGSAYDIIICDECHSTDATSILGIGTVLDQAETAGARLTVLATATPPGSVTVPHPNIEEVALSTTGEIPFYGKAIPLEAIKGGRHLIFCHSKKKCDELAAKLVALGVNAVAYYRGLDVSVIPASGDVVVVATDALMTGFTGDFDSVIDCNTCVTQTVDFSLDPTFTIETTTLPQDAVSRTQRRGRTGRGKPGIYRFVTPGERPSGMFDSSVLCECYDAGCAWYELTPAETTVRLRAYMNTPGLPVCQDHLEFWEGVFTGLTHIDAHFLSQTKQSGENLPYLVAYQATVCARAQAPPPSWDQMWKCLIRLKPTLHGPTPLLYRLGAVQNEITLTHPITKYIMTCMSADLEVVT
row,Compound,Ki
1,C=CCNC(=O)C(=O)[C@H](CCC)NC(=O)[C@@H]1CN(Cc2ccccc2)C(=O)N1C(=O)[C@@H](NC(=O)[C@@H](NC(=O)[C@H](CCC(=O)OC(C)(C)C)NC(=O)[C@H](CCC(=O)OC(C)(C)C)NC(C)=O)C(C)C)C(C)C,61 µM
2,C=CCNC(=O)C(=O)[C@H](CCC)NC(=O)[C@@H]1CN(Cc2ccccc2)C(=O)N1C(=O)[C@@H](NC(=O)[C@@H](NC(=O)[C@H](CCC(=O)O)NC(=O)[C@H](CCC(=O)O)NC(C)=O)C(C)C)C(C)C,1 µM
3,C=CCOC(=O)CNC(=O)C(=O)[C@H](CCC)NC(=O)[C@@H]1CN(Cc2ccccc2)C(=O)N1C(=O)[C@@H](NC(=O)[C@@H](NC(=O)[C@H](CCC(=O)O)NC(=O)[C@H](CCC(=O)O)NC(C)=O)C(C)C)C(C)C,1 µM
4,C=CCOC(=O)CNC(=O)C(=O)[C@H](CCC)NC(=O)[C@@H]1CN(Cc2ccc(Cl)c(Cl)c2)C(=O)N1C(=O)[C@@H](NC(=O)[C@@H](NC(=O)[C@H](CCC(=O)O)NC(=O)[C@H](CCC(=O)O)NC(C)=O)C(C)C)C(C)C,0.31 µM
5,C=CCNC(=O)C(=O)[C@H](CCC)NC(=O)[C@@H]1CNC(=O)N1C(=O)[C@@H](NC(=O)[C@@H](NC(=O)[C@H](CCC(=O)OC(C)(C)C)NC(=O)[C@H](CCC(=O)OC(C)(C)C)NC(C)=O)C(C)C)C(C)C,69 µM
6,C=CCOC(=O)CNC(=O)C(=O)C(CCC)NC(=O)[C@@H]1CN(Cc2ccccc2)C(=O)N1C(=O)[C@@H](NC(=O)[C@@H](NC(=O)[C@H](CCC(=O)OC(C)(C)C)NC(=O)[C@H](CCC(=O)OC(C)(C)C)NC(C)=O)C(C)C)C(C)C (stereo partly specified),> 100 µM
7,C=CCOC(=O)CNC(=O)C(=O)C(CCC)NC(=O)[C@@H]1CN(Cc2ccc(Cl)c(Cl)c2)C(=O)N1C(=O)[C@@H](NC(=O)[C@@H](NC(=O)[C@H](CCC(=O)OC(C)(C)C)NC(=O)[C@H](CCC(=O)OC(C)(C)C)NC(C)=O)C(C)C)C(C)C (stereo partly specified),> 100 µM

# More lines, now with the values ahead:
row,Ki,Compound
1,150 µM,C=CCNC(=O)C(=O)C(CCC)NC(=O)[C@@H]1CN(CC(=O)OCC)C(=O)N1C(=O)[C@@H](NC(=O)OC(C)(C)C)C(C)C (stereo partly specified)
2,4 µM,C=CCNC(=O)C(=O)[C@H](CCC)NC(=O)[C@@H]1CN(CC(=O)OCC)C(=O)N1C(=O)[C@@H](NC(=O)[C@@H](NC(=O)[C@H](CCC(=O)O)NC(=O)[C@H](CCC(=O)O)NC(C)=O)C(C)C)C(C)C
3,46 µM,C=CCNC(=O)C(=O)[C@H](CCC)NC(=O)[C@@H]1CNC(=O)N1C(=O)[C@@H](NC(=O)[C@@H](NC(=O)[C@H](CCC(=O)O)NC(=O)[C@H](CCC(=O)O)NC(C)=O)C(C)C)C(C)C
4,30 µM,C=CCNC(=O)C(=O)[C@H](CCC)NC(=O)[C@@H]1CN(CC(=O)OCC)C(=O)N1C(=O)[C@@H](NC(=O)[C@@H](NC(=O)[C@H](CCC(=O)OC(C)(C)C)NC(=O)[C@H](CCC(=O)OC(C)(C)C)NC(C)=O)C(C)C)C(C)C
